Source: patent publication US20240025903A1, “Bicyclic Compounds and Uses Thereof for the Treatment of Diseases” (Athira Pharma, Inc., priority 2020, published 2024)

Experiments:
MDCK cells = assay: Cell scattering behavior assay; assay type: cell-based; conditions: 5 ng/mL HGF, 24 hours, normalized particle count vs HGF alone
In short: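 MDCK cells starved 2 h in serum-free DMEM, then treated 24 h at 37 °C with compounds plus 5 ng/mL HGF. Cells were ethanol-fixed, WGA488-stained and imaged. Scattering was scored as particle count normalized to stained area, with activity taken as a statistical increase in normalized particle count over HGF alone.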

[1] = In vitro stability in simulated gastric and intestinal fluids; assay type: in vitro ADME; conditions: 37° C.; for SGF + Enz (compound remaining after 4 hours): SGF with 3.2 mg/ml pepsin; for SGF + Enz (compound remaining after 4 hours) / SIF (compound remaining after 4 hours): 5 μM; for SGF (compound remaining after 4 hours): simulated gastric fluid pH 1.2, 5 μM; for SIF (compound remaining after 4 hours): simulated intestinal fluid pH 6.8 with 10 mg/ml pancreatin
Description: (§1) Bioavailability can be estimated by compound stability when exposed to conditions in the body. As an initial assessment of stability properties in a variety of conditions present in animals, exemplary compounds were tested for stability in a battery of simulated body compartments. Compounds were tested for stability in the following solutions: simulated gastric fluid (SGF: 34.2 mM NaCl, pH 1.2), simulated gastric fluid with the digestive enzyme pepsin (SGF+Enzyme: SGF with 3.2 mg/ml pepsin), simulated intestinal fluid with the mixture of enzymes in porcine pancreatin (SIF+Enzyme: 28.7 mM NaH2PO4, 105.7 mM NaCl, pH 6.8, 10 mg/ml pancreatin), rat plasma, and human plasma.
(§2) Test compounds were incubated at a final concentration of 5 μM in the above solutions at 37° C. with samples removed at the following time points: 0, 1, 2, and 4 hours. Reactions were stopped and prepared for quantification by addition of excess quench solution containing an internal standard (acetonitrile, 200 ng/mL bucetin). Test compound and internal standard in each sample was quantified by LC-MS/MS, and after internal normalization to bucetin, test compound concentration was expressed as a percentage of concentration at the 0-hour time point. Stability in the relevant test solution was then determined by the percent remaining at the 4-hour time point.

[2] = Parallel artificial membrane permeability assay (PAMPA); assay type: in vitro ADME; conditions: PBS, room temperature
Description: Bioavailable drugs must permeate the cellular membranes of the lining of the digestive tract. To estimate the penetrability of exemplary compounds, the in vitro parallel artificial membrane permeability assay (PAMPA) was utilized.
Test compounds must have a standard curve in the final read plate to determine partitioned concentration of each drug. A 6-point standard curve was prepared for each compound from 0 to 200 μM in phosphate-buffered saline (PBS).
Test compound solution (300 μL in PBS) was added to the donor (bottom) well of the PAMPA plate in 5 replicates and PBS vehicle (200 μL) was added to the acceptor (top) wells of appropriate wells to match the loading of the donor plate. The bottom and top of the PAMPA plates were then sandwiched together. The PAMPA plates were then incubated at room temperature for 5 hours. After incubation, 150 μL of donor solution was added to a UV compatible plate containing the corresponding standard curve. 150 μL of acceptor well solution was added adjacent to the corresponding standard curve and donor well samples for that compound. The plate was then read using a UV plate reader.
Permeability and membrane retention were then calculated based on the following formulas:
Permeability (cm/s): (Pe)(cm/s)={−ln [1−CA(t)/Ceq]}/[A*(1/VD+1/VA)*t] (equation 1) • where: • A=filter area (0.3 cm^2); • VD=donor well volume (0.3 mL); • VA=acceptor well volume (0.2 mL); • t=incubation time (seconds); • CA(t)=compound concentration in acceptor well at time t; • CD(t)=compound concentration in donor well at time t; and • Ceq=[CD(t)*VD+CA(t)*VA]/(VD+VA).
Membrane Retention (R)=1−[CD(t)*VD+CA(t)*VA]/(C0*VD) (equation 2) • where: • CD(t), VD, CA(t), and VA are as defined for equation 1, and • C0=initial concentration in donor well (200 uM).

[3] = Turbidimetric solubility assay; assay type: physicochemical; conditions: PBS, 37° C., absorbance 620 nm; for solubility at 2 h: aqueous buffer, kinetic from dmso stock
[4] = In vitro stability in rat plasma; assay type: in vitro ADME; conditions: 5 μM, 37° C.
Description: as §1, §2

[5] = In vitro stability in human plasma; assay type: in vitro ADME; conditions: 5 μM, 37° C.
Description: as §1, §2

## CC1C(=O)N(CCC2CCC2)CC2N(C(=O)c3ccc(C(F)(F)F)cc3)CCC(=O)N12 (stereo not shown) [Compound 20]
MDCK cells
  Potency (cell scattering): +++ (+++ indicates maximum potency at or above 1 nM)
[1]
  SGF + Enz (compound remaining after 4 hours): +++ (+++ indicates 80-99% compound remaining after 4 hours)
  SGF (compound remaining after 4 hours): +++ (+++ indicates 80-99% compound remaining after 4 hours)
  SIF (compound remaining after 4 hours): +++ (+++ indicates 80-99% compound remaining after 4 hours)
[2]
  Papp at 5 h, 200 µM: < 2 ×10⁻⁶ cm/s
[3]
  solubility at 2 h: > 300 µM
[4]
  Rat Plasma (compound remaining after 4 hours): ++ (++ indicates 40-79% compound remaining after 4 hours)
[5]
  Human Plasma (compound remaining after 4 hours): +++ (+++ indicates 80-99% compound remaining after 4 hours)

## CCC(C)CN1CC2N(C(=O)c3ccc(O)cc3)CCC(=O)N2[C@@H](C)C1=O (stereo partly shown) [Compound 8a]
MDCK cells
  Potency (cell scattering): +++ (+++ indicates maximum potency at or above 1 nM)
[1]
  SGF + Enz (compound remaining after 4 hours): +++ (+++ indicates 80-99% compound remaining after 4 hours)
  SGF (compound remaining after 4 hours): ++++ (++++ indicates 100% compound remaining after 4 hours)
  SIF (compound remaining after 4 hours): +++ (+++ indicates 80-99% compound remaining after 4 hours)
[2]; 5 hours
  Permeability: + (+ indicates permeability above 1 × 10^−5 cm/s)
[3]; 2 hours
  Solubility: ++++ (++++ indicates solubility at 300 μM)
[4]
  Rat Plasma (compound remaining after 4 hours): ++++ (++++ indicates 100% compound remaining after 4 hours)
[5]
  Human Plasma (compound remaining after 4 hours): ++ (++ indicates 40-79% compound remaining after 4 hours)

## CC1C(=O)N(CCC2CCCC2)CC2N(C(=O)c3ccc(C(F)(F)F)cc3)CCC(=O)N12 (stereo not shown) [Compound 19]
MDCK cells
  Potency (cell scattering): +++ (+++ indicates maximum potency at or above 1 nM)
[1]
  SGF + Enz (compound remaining after 4 hours): ++ (++ indicates 40-79% compound remaining after 4 hours)
  SGF (compound remaining after 4 hours): +++ (+++ indicates 80-99% compound remaining after 4 hours)
  SIF (compound remaining after 4 hours): + (+ indicates 20-39% compound remaining after 4 hours)
[2]
  Papp at 5 h, 200 µM: < 2 ×10⁻⁶ cm/s
[3]
  solubility at 2 h: > 300 µM
[4]
  Rat Plasma (compound remaining after 4 hours): +++ (+++ indicates 80-99% compound remaining after 4 hours)
[5]
  Human Plasma (compound remaining after 4 hours): +++ (+++ indicates 80-99% compound remaining after 4 hours)

## CCC(C)CN1CC2N(C(=O)c3ccc(OC(F)F)cc3)CCC(=O)N2[C@@H](C)C1=O (stereo partly shown) [Compound 2a]
MDCK cells
  Potency (cell scattering): + (+ indicates maximum potency at or above 100 nM)
[1]
  SGF + Enz (compound remaining after 4 hours): +++ (+++ indicates 80-99% compound remaining after 4 hours)
  SGF (compound remaining after 4 hours): ++++ (++++ indicates 100% compound remaining after 4 hours)
  SIF (compound remaining after 4 hours): ++++ (++++ indicates 100% compound remaining after 4 hours)
[2]
  Papp at 5 h, 200 µM: < 2 ×10⁻⁶ cm/s
[3]
  solubility at 2 h: > 300 µM
[4]
  Rat Plasma (compound remaining after 4 hours): ++ (++ indicates 40-79% compound remaining after 4 hours)
[5]
  Human Plasma (compound remaining after 4 hours): ++ (++ indicates 40-79% compound remaining after 4 hours)

## CCC(C)CN1CC2N(Cc3ccc(C(F)(F)F)cc3)CCC(=O)N2[C@@H](C)C1=O (stereo partly shown) [Compound 5a]
MDCK cells
  Potency (cell scattering): ++++ (++++ indicates maximum potency at or above 0.1 nM)
[1]
  SGF + Enz (compound remaining after 4 hours): + (+ indicates 20-39% compound remaining after 4 hours)
  SGF (compound remaining after 4 hours): +++ (+++ indicates 80-99% compound remaining after 4 hours)
  SIF (compound remaining after 4 hours): +++ (+++ indicates 80-99% compound remaining after 4 hours)
[2]
  Papp at 5 h, 200 µM: < 2 ×10⁻⁶ cm/s
[3]
  solubility at 2 h: > 300 µM
[4]
  Rat Plasma (compound remaining after 4 hours): ++ (++ indicates 40-79% compound remaining after 4 hours)
[5]
  Human Plasma (compound remaining after 4 hours): ++ (++ indicates 40-79% compound remaining after 4 hours)
